One experiment concerns the target T1, COX2 (Homo sapiens, UniProt P35354).
T1 sequence (P35354 18-604): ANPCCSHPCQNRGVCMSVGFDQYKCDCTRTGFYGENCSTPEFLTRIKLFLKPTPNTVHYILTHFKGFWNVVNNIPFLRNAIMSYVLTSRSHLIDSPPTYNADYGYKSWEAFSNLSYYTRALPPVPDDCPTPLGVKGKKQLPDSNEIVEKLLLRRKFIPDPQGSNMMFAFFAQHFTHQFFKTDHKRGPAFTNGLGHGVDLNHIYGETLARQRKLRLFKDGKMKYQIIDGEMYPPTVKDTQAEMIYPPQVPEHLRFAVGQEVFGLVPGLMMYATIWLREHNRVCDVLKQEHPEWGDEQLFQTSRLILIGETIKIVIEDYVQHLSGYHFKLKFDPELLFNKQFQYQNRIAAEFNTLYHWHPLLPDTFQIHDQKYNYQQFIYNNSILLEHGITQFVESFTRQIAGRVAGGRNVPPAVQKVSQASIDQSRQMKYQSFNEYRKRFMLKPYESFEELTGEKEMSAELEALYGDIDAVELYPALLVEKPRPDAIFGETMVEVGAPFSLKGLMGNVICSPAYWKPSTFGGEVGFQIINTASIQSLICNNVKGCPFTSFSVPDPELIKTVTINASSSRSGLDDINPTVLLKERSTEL
Put plainly: S565 acetylation of recombinant COX2 (ac-S565 western blot, LC-MS/MS of acetylated site). It is filed as biochemical. To be noted: 2 mM; vs naive and aspirin-treated COX2. More on the design: purchased LSBio LS-G21094. The procedure:
To identify the acetylation site of COX2, N-AS (Sigma-Aldrich, 01912)-treated COX2 enzymes (LSBio, LS-G21094) were immediately precipitated with trichroloacetic acid (Merck) and dried. The dried extract was resuspended in 10 μl of 5 M Urea solution and incubated with 1 μg sequencing-grade modified porcine trypsin (Promega) in 0.1 M ammonium bicarbonate buffer at 37 °C for 16 h. The sample was then treated with 1 M DTT (GE Healthcare) at RT for 1 h, followed by alkylation with 1 M iodoacetamide (Sigma-Aldrich) for 1 h. For sequencing, the protein samples were loaded onto a ZORBAX 300SB-C18 column (3.5 μm, 1.0 mm i.d. × 150 mm, Agilent). The column was placed in-line with an UltiMate 3000 system (Dionex, USA) and a splitter system was used to achieve a flow rate of 100 μl min^−1. Analytes were eluted with a mobile phase consisting of water: formic acid (100:0.2 v/v) (phase A) and acetonitrile: formic acid (100:0.2 v/v) (phase B) in gradient elution mode for 77 min. […]
Samples were lysed in RIPA buffer (Cell signaling Technologies), then subjected to SDS-PAGE and transferred to a nitrocellulose membrane. […] We performed densitometric quantification using the ImageJ software (National Institutes of Health). […]
In general terms: Immunoblotting shows a protein as a band on a membrane.

A further experiment relates to neuron. Briefly: SphK activity in primary cells. It is filed as cell-based, C57BL/6 mice. To be noted: Ab 10mM, replicates. The procedure:
We confirmed S1P formation through SphK1 enzymatic activity measurements as previously described[11] using a UPLC (Ultra performance liquid chromatography) system (Waters). […] After pre-incubation, 1 mM ATP (Amresco, 0220) was added the mixture, and it was incubated at 37 °C for 1 h. The […] reactions were stopped by adding 53 μl of ethanol, and centrifuged at 15,493×g for 5 min. Thirty microliter of the supernatant was then transferred to a sampling glass vial and 5 μl was applied onto a UPLC system for analysis. S1P formation was followed as phosphorylation of (7-nitro-2-1,3-benzoxadiazol-4-yl)-d-erythro (NBD)-sphingosine (Avanti Polar Lipids) to NBD-S1P. Quantification was achieved by comparison with NBD-S1P (Avanti Polar Lipids) standards.
To confirm the generation and roles of N-AS in neurons, cells from E18 C57BL/6 mice were prepared as previously described. Cortices were dissected and then dissociated followed by incubation in papain (Worthington) at 37 °C for 15 min. […] The human microglia treated with Aβ 1–42 and/or zileuton was incubated with N-AS (2.5 μM, 2 h, Sigma-Aldrich, 01912), and were analyzed for the generation and roles of N-AS.

Where “and” joins values, the source holds several entries; their conditions need not be identical. Identical values can stand only once.

Take `CCCCCCCCCCCCC/C=C/[C@@H](O)[C@H](CO)NC(C)=O` [N-AS, N-((2S,3R,E)-1,3-Dihydroxyoctadec-4-en-2-yl)acetamide]: at COX2, the “ac-S565 signal in western blot of recombinant COX2” value is listed as “strong ac-S565-positive signals”.
Consider “Ab: Aβ 1–42 (Invitrogen, 03112) used to induce an AD environment in cells”, for which, in the experiment on neuron, the “SphK activity (Fig 3d)” value was 1.391 and 1.001 and 1.873 and 1.345 and 1.437 and 1.609.

Source of the values: publication PMC7217877, “N-AS-triggered SPMs are direct regulators of microglia in a model of Alzheimer’s disease” (Nature Communications, 2020).
